Data published in patent US6562839B1, “6-substituted heteroquinolinecarboxylic acid derivatives and addition salts thereof and processes for the preparation of both” (Kyorin Pharmaceutical Co., Ltd., priority 1999, dated 2003).
Where a name gives a salt, the structure may show the parent alone.

target: AMPA receptor; experiment: Binding experiment against AMPA receptor ([3H]-AMPA binding, crude synaptic membranes from cerebral cortex); settings: rat cerebral cortex crude synaptic membranes; [3H]-AMPA 5 nmol/L, potassium thiocyanate 100 mmol/L, 30 minutes at 0° C.; IC50 converted to Ki
Experimental: Binding Experiment Against AMPA Receptor
To a crude synaptic membranes preparation prepared from cerebral cortex in rat were added [^3H]-AMPA (final concentration: 5 nmol/L) that binds selectively to AMPA receptors, potassium thiocyanate (final concentration: 100 mmol/L) and testing compound, and the mixture was incubated for 30 minutes at 0° C. After the reaction was stopped by suction filtration, the radioactivity on filter was measured with liquid scintillation counter. The specific binding level of [^3H]-AMPA was determined by subtracting the non-specific binding level in the presence of glutamic acid (0.1 mmol/L) from total binding level. The [^3H]-AMPA binding in the absence of testing compound was put on 100, and the concentration of compound to decrease by 50% (IC50 value) was determined, which was converted to Ki value to calculate the binding capacity of each compound to AMPA receptor (Eur. J. Pharmacol., 1993, 246, 195-204).

Ki [nM]	Structure (SMILES)
22.4	O=C(Nc1ccccc1)OCc1cn(-c2cc3cc(C(=O)O)c(=O)[nH]c3cc2[N+](=O)[O-])cn1 [Example 2, 1,2-Dihydro-7-nitro-2-oxo-6-(4-((phenylcarbamoyloxy)methyl)imidazole-1-yl)quinoline-3-carboxylic acid]
8.22	O=C(Nc1ccccc1F)OCc1cn(-c2cc3cc(C(=O)O)c(=O)[nH]c3cc2[N+](=O)[O-])cn1 [Example 6]
18.4	CCOC(=O)c1ccc(NC(=O)OCc2cn(-c3cc4cc(C(=O)OCC)c(=O)[nH]c4cc3C(F)(F)F)cn2)cc1 [Example 18, Ethyl 1,2-dihydro-6-(4-(((4-ethoxycarbonylphenyl)carbamoyloxy)methyl)imidazole-1-yl)-2-oxo-7-trifluoromethylquinoline-3-carboxylate]
16.5	O=C(Nc1ccc(C(=O)O)cc1)OCc1cn(-c2cc3cc(C(=O)O)c(=O)[nH]c3cc2[N+](=O)[O-])cn1 [Example 16, 6-(4-(((4-Carboxyphenyl)carbamoyloxy)methyl)imidazole-1-yl)-1,2-dihydro-7-nitro-2-oxoquinoline-3-carboxylic acid]
17.8	O=C(Nc1cccc(C(=O)O)c1)OCc1cn(-c2cc3cc(C(=O)O)c(=O)[nH]c3cc2[N+](=O)[O-])cn1 [Example 15, 6-(4-(((3-Carboxyphenyl)carbamoyloxy)methyl)imidazole-1-yl)-1,2-dihydro-7-nitro-2-oxoquinoline-3-carboxylic acid]

tested on: not given; experiment: not given; settings: not given

melting point	Structure (SMILES)
226 to 228 °C	O=C(Nc1ccccc1F)OCc1cn(-c2cc3cc(C(=O)O)c(=O)[nH]c3cc2[N+](=O)[O-])cn1 (as salt: HCl) [Example 6]
263 to 265 °C (dec.)	O=C(Nc1cccc(C(=O)O)c1)OCc1cn(-c2cc3cc(C(=O)O)c(=O)[nH]c3cc2Cl)cn1 [Example 43, 6-((((3-Carboxyphenyl)carbamoyloxy)methyl)imidazole-1-yl)-7-chloro-1,2-dihydro-2-oxoquinoline-3-carboxylic acid]
218 to 220 °C	O=C(Nc1ccc(C(=O)O)cc1)OCc1cn(-c2cc3cc(C(=O)O)c(=O)[nH]c3cc2C(F)(F)F)cn1 [Example 19, 6-(4-(((4-Carboxyphenyl)carbamoyloxy)methyl)imidazole-1-yl)-1,2-dihydro-2-oxo-7-trifluoromethylquinoline-3-carboxylic acid]
180 to 182 °C	O=C(Nc1ccccc1)OCc1cn(-c2cc3cc(C(=O)O)c(=O)[nH]c3cc2Cl)cn1 [Example 41, 7-Chloro-1,2-dihydro-2-oxo-6-(4-((phenylcarbamoyloxy)methyl)imidazole-1-yl)quinoline-3-carboxylic acid]
145 to 147 °C	O=C(Nc1ccccc1Br)OCc1cn(-c2cc3cc(C(=O)O)c(=O)[nH]c3cc2C(F)(F)F)cn1 [Example 25, 6-(4-(((2-Bromophenyl)carbamoyloxy)methyl)imidazole-1-yl)-1,2-dihydro-2-oxo-7-trifluoromethylquinoline-3-carboxylic acid]
169 to 171 °C	O=C(NCc1ccccc1)OCc1cn(-c2cc3cc(C(=O)O)c(=O)[nH]c3cc2C(F)(F)F)cn1 [Example 32]
249 to 251 °C	O=C(Nc1ccc(C(=O)O)cc1)OCc1cn(-c2cc3cc(C(=O)O)c(=O)[nH]c3cc2Cl)cn1 [Example 44, 6-((((4-Carboxyphenyl)carbamoyloxy)methyl)imidazole-1-yl)-7-chloro-1,2-dihydro-2-oxoquinoline-3-carboxylic acid]
